Data as given in PMC8994207 (Journal of medicinal chemistry, 2021).
Entries after “also recorded” stand apart in the source; their conditions may differ. Like-named read-outs stand apart in the source and are kept apart here.

Legend:
human OX1R = molecular target: T1, human OX1R (Homo sapiens, UniProt O43613); assay: OX1R calcium mobilization assay; settings: for agonist activity at OX1R (in words): calcium mobilization
T1 sequence (O43613 1-425): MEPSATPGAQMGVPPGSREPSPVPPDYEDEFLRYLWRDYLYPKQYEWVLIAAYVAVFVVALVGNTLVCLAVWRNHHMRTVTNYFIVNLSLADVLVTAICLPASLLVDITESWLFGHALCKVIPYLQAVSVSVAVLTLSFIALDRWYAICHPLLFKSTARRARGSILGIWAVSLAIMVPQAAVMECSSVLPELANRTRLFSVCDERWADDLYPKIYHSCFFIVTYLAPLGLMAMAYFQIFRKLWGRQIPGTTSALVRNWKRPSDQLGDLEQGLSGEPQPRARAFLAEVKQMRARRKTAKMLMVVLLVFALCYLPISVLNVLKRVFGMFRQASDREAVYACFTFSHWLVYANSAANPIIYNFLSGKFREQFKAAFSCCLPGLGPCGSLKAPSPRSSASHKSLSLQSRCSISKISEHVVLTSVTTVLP

human OX2R = molecular target: T2, human OX2R (Homo sapiens, UniProt O43614); assay: OX2R calcium mobilization assay; settings: for agonist activity at OX2R (in words): calcium mobilization
T2 sequence (O43614 1-444): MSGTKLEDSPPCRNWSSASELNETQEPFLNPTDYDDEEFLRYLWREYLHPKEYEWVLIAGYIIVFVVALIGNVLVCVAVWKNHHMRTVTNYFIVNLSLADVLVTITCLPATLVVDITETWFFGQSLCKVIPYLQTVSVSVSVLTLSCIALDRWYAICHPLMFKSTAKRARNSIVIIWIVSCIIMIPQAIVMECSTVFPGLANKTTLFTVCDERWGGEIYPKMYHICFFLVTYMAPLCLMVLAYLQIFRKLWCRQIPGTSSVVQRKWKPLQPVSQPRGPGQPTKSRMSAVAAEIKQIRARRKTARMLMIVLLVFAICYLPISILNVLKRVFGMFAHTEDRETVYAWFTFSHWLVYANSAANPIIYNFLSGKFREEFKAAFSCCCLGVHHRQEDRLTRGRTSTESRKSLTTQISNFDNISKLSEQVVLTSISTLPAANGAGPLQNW

OX1R = settings: read-out: EC50 at OX1R; weak agonist of both OX receptors; cited from earlier work
OX2R = settings: read-out: EC50 at OX2R; weak agonist of both OX receptors; cited from earlier work
[1] = cited from earlier work
rats = settings: EEG changes, locomotor activity, startle response latency; cited from earlier work
mice = settings: cited from earlier work
12-month old mice = assay: Sleep modulation study, continuous EEG/EMG recordings; type: in vivo
[2] = i.c.v. 30, 100, 300 nmol, light phase, up to 3 h post injection
[3] = i.p. 40 and 60 mg/kg, 6 h into the light phase, up to 3 h, mice
[4] = 40 mg/kg i.p., 4 h post-injection, vs saline
[5] = 40 mg/kg i.p., lights-on phase, 12-month old mice, 0-4 h post-injection, vs vehicle
[6] = i.p. injection, 12-month old mice

SMILES: COc1ccc(-c2cccc(C(=O)N(C)C)n2)cc1S(=O)(=O)Nc1cccc(NCCNC(=O)c2cccc(C)c2)c1 [compound 27, 6-(4-methoxy-3-(N-(3-((2-(3-methylbenzamido)ethyl)amino)phenyl)sulfamoyl)phenyl)-N,N-dimethylpicolinamide]
- agonist activity at OX1R (in words) (human OX1R): full agonist

SMILES: COc1ccc(/C=C/C(=O)N(C)C)cc1S(=O)(=O)Nc1cccc(NCCNC(=O)c2cccc(C)c2)c1 [compound 31, (E)-N-(2-((3-((5-(3-(dimethylamino)-3-oxoprop-1-en-1-yl)-2-methoxyphenyl)sulfonamido)-phenyl)amino)ethyl)-3-methylbenzamide]
- agonist activity at OX2R (in words) (human OX2R): inactive
- agonist activity at OX1R (in words) (human OX1R): inactive

SMILES: Cc1ccc(Cn2c(=N)n(CC(O)c3ccc(Cl)c(Cl)c3)c3ccccc32)cc1 (stereo not shown) [compound 1]
- EC50 (OX1R): > 3.2 µM
- EC50 (OX2R): > 3.2 µM
- cytotoxicity [1]: OX receptor independent cytotoxicity

SMILES: COc1ccc(CCC(=O)N(C)C)cc1S(=O)(=O)Nc1cccc(NCCNC(=O)c2cccc(C)c2)c1 [compound 32, N-(2-((3-((5-(3-(dimethylamino)-3-oxopropyl)-2-methoxyphenyl)sulfonamido)phenyl)amin-o)ethyl)-3-methylbenzamide]
- agonist activity at OX2R (in words) (human OX2R): inactive
- agonist activity at OX1R (in words) (human OX1R): inactive

SMILES: CCCNC(=O)c1cccc(-c2ccc(OC)c(S(=O)(=O)Nc3cccc(NCCNC(=O)c4ccccc4N(C)C)c3)c2)c1 [compound 9, 3’-(N-(3-((2-(2-(dimethylamino)benzamido)ethyl)amino)phenyl)sulfamoyl)-4’-methoxy-N-p-ropyl-[1,1’-biphenyl]-3-carboxamide]
- agonist activity at OX1R (in words) (human OX1R): no activity

SMILES: COc1ccc(-c2cccc(C(=O)N(C)C)c2)cc1S(=O)(=O)Nc1cccc(N2CCN(C(=O)c3ccccc3N(C)C)CC2)c1 [compound 22, 3’-(N-(3-(4-(2-(dimethylamino)benzoyl)piperazin-1-yl)phenyl)sulfamoyl)-4’-methoxy-N,N-dimethyl-[1,1’-biphenyl]-3-carboxamide]
- agonist activity at OX2R (in words) (human OX2R): all activities were lost
- agonist activity at OX1R (in words) (human OX1R): all activities were lost

SMILES: COc1ccc(-c2cccc(C(=O)NCCN(C)C)c2)cc1S(=O)(=O)Nc1cccc(NCCNC(=O)c2cccc(C)c2)c1 [compound 34, N-(2-(dimethylamino)ethyl)-4’-methoxy-3’-(N-(3-((2-(3-methylbenzamido)ethyl)amino)phenyl)sulfamoyl)-[1,1’-biphenyl]-3-carboxamide]
- agonist activity at OX1R (in words) (human OX1R): complete loss of potency

SMILES: COc1ccc(-c2cccc(CN(C)C)c2)cc1S(=O)(=O)Nc1cccc(NCCNC(=O)c2ccccc2N(C)C)c1 [compound 10, 2-(Dimethylamino)-N-(2-((3-((3’-((dimethylamino)methyl)-4-methoxy-[1,1’-biphenyl])-3-sulfonamido)phenyl)amino)ethyl)benzamide]
- agonist activity at OX1R (in words) (human OX1R): no activity

SMILES: COc1ccc(-c2cccc(C(=O)N(C)Cc3ccccc3)c2)cc1S(=O)(=O)Nc1cccc(NCCNC(=O)c2cccc(C)c2)c1 [compound 36, N-Benzyl-4’-methoxy-N-methyl-3’-(N-(3-((2-(3-methylbenzamido)ethyl)amino)phenyl)sulfa-moyl)-[1,1’-biphenyl]-3-carboxamide]
- agonist activity at OX1R (in words) (human OX1R): no activity

SMILES: COc1ccc(-c2cccc(C(=O)NCc3ccccn3)c2)cc1S(=O)(=O)Nc1cccc(NCCNC(=O)c2cccc(C)c2)c1 [compound 38, 4’-Methoxy-3’-(N-(3-((2-(3-methylbenzamido)ethyl)amino)phenyl)sulfamoyl)-N-(pyridin-2-ylmethyl)-[1,1’-biphenyl]-3-carboxamide]
- agonist activity at OX1R (in words) (human OX1R): complete loss of the OX1R potency

SMILES: COc1ccc(-c2cccc(C(=O)N(C)C)c2)cc1S(=O)(=O)Nc1cccc(N2CCN(C(=O)c3cccc(C)c3)CC2)c1 [compound 23, 4’-Methoxy-N,N-dimethyl-3’-(N-(3-(4-(3-methylbenzoyl)piperazin-1-yl)phenyl)sulfamoyl)-[1,1’-biphenyl]-3-carboxamide]
- agonist activity at OX2R (in words) (human OX2R): all activities were lost
- agonist activity at OX1R (in words) (human OX1R): all activities were lost

SMILES: COc1ccc(-c2cccc(C(=O)N(C)Cc3ccncc3)c2)cc1C(=O)Nc1cccc(NCCNC(=O)c2cccc(C)c2)c1 [compound 44, 4-Methoxy-N^3’-methyl-N^3-(3-((2-(3-methylbenzamido)ethyl)amino)phenyl)-N^3’-(pyridin-4-ylmethyl)-[1,1’-biphenyl]-3,3’-dicarboxamide]
- agonist activity at OX1R (in words) (human OX1R): total loss of activity

SMILES: COc1ccc(-c2cccc(C(=O)N(C)C)c2)cc1S(=O)(=O)Nc1cccc(NCCNC(=O)c2ccccc2N(C)C)c1 [compound 2, 3’-(N-(3-((2-(2-(dimethylamino)benzamido)ethyl)amino)phenyl)sulfamoyl)-4’-methoxy-N,-N-dimethyl-[1,1’-biphenyl]-3-carboxamide]
- morphine-induced sedative effects (rats): attenuated
- percent time in NREM sleep (mice; [2]): decreased
- time in wakefulness (mice; [2]): increased
- sleep/wake parameters (mice; i.p. 20 mg/kg): did not have any effect
- percent time in NREM sleep (mice; i.p. 40 mg/kg, mice): reduced
- percent time in REM sleep (mice; [3]): decreased
- percent time in wakefulness (mice; [3]): increased
- wake time (mice; i.p. 40 or 60 mg/kg): increased
- direct transitions from wakefulness to REM sleep (mice; i.p. 40 or 60 mg/kg, for 3 hours): decreased
- cataplexy-like episodes (mice; orexin knock-out and orexin neuron-ablated mice): suppressed
- wakefulness (mice; wild-type mice, i.c.v. 30–300 nmol and/or i.p. 40 mg/kg, hydrochloride salt): promoted wakefulness

SMILES: COc1ccc(-c2cccc(C(=O)N(C)C)c2)cc1C(=O)Nc1cccc(NCCNC(=O)c2cccc(C)c2)c1 [compound 43, 4-Methoxy-N^3’,N^3’-dimethyl-N^3-(3-((2-(3-methylbenzamido)ethyl)amino)phenyl)-[1,1’-biph-enyl]-3,3’-dicarboxamide]
- agonist activity at OX1R (in words) (human OX1R): total loss of activity

SMILES: COc1ccc(-c2cccc(C(=O)N(C)Cc3ccncc3)c2)cc1S(=O)(=O)Nc1cccc(NCCNC(=O)c2cccc(C)c2)c1 [compound 40, 4’-Methoxy-N-methyl-3’-(N-(3-((2-(3-methylbenzamido)ethyl)amino)phenyl)sulfamoyl)-N-(pyridin-4-ylmethyl)-[1,1’-biphenyl]-3-carboxamide]
- agonist activity at OX2R (in words) (human OX2R): full agonist
- Emax (human OX2R; read-out: Emax at OX2R): ~100%
- duration of NREM sleep episodes (12-month old mice; [4]): increased
- duration of REM sleep episodes (12-month old mice; [4]): did not affect; also recorded: without effecting
- duration of wake episodes (12-month old mice; [4]): increased
- number of NREM sleep episodes (12-month old mice; [4]): Reduced
- number of REM sleep episodes (12-month old mice; [4]): fewer episodes; also recorded: reduced
- number of state transitions (12-month old mice; [4]): reduced
- number of wake episodes (12-month old mice; [4]): reduced
- time spent in NREM sleep (12-month old mice; [5]): reduced; also recorded: decreased
- time spent in REM sleep (12-month old mice; [5]): reduced; also recorded: decreased
- time spent in wakefulness (12-month old mice; 40 mg/kg i.p., quiet lights-on phase, 12-month old mice, 0-4 h post-injection, vs vehicle): significantly increased
- sleep/wake consolidation (12-month old mice; [6]): increased; also recorded: improved
- time asleep (12-month old mice; [6]): decreased
- agonist activity at OX1R (in words) (human OX1R): full agonist
- Emax (human OX1R; read-out: Emax at OX1R): ~100%
